Results: ChEMBL document CHEMBL5625253, “Discovery of novel benzofuran-based derivatives as acetylcholinesterase inhibitors for the treatment of Alzheimer's disease: Design, synthesis, biological evaluation, molecular docking and 3D-QSAR investigation” (Eur J Med Chem, 2023)
pIC50: −log10 of the molar value. Activity calls are given as the source filed them. No cut-off for these calls is given here.

How the values were obtained:
Acetylcholinesterase = Acetylcholinesterase (Homo sapiens, UniProt P22303); assay: Inhibition of AChE (unknown origin) using […] as substrate incubated for 15 to 20 mins by DTNB reagent based Ellman's method
Sequence of Acetylcholinesterase (P22303 whole entry): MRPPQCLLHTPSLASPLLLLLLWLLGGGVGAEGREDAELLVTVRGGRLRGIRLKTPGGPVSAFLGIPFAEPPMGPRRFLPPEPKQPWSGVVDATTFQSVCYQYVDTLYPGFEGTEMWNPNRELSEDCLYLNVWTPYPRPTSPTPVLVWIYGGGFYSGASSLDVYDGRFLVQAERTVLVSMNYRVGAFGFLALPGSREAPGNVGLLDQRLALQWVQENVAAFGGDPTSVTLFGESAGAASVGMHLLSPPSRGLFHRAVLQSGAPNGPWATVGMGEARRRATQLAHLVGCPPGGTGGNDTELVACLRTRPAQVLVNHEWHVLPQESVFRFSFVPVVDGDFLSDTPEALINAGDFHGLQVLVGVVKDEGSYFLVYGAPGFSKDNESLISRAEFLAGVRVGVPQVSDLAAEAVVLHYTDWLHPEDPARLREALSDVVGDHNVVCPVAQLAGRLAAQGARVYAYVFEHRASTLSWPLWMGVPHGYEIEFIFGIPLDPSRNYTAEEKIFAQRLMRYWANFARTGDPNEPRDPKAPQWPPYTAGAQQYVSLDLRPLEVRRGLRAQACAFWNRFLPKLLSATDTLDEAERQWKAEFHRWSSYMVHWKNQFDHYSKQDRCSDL

[1] = Antioxidant activity assessed as DPPH radical scavenging activity at 0.01 ug/ml incubated for 1 hr under dark condition by absorbance based assay relative to control; type: functional; details: dose 0.01 µg/ml
[2] = Antioxidant activity assessed as DPPH radical scavenging activity at 0.05 ug/ml incubated for 1 hr under dark condition by absorbance based assay relative to control; type: functional; details: dose 0.05 µg/ml
[3] = Toxicity in Wistar rat assessed as hemoglobin level in blood at 10 mg/kg,po (reference value: 14.5 +/- 1 g/dl); type: organism-based; details: in vivo
[4] = Toxicity in Wistar rat assessed as RBC level in blood at 10 mg/kg,po; type: organism-based, Erythrocyte; details: in vivo
[5] = Toxicity in Wistar rat assessed as […] cell volume in blood at 10 mg/kg,po (reference value: 43 +/- 3.1 %); type: organism-based; details: in vivo
[6] = Toxicity in Wistar rat assessed as haematocrit level in blood at 10 mg/kg,po (reference value: 38.16 +/- 2.44 %); type: organism-based; details: in vivo
[7] = Toxicity in Wistar rat assessed as mean corpuscular volume in blood at 10 mg/kg,po (reference value: 59 +/- 5 fL); type: organism-based; details: in vivo
[8] = Toxicity in Wistar rat assessed as mean corpuscular hemoglobin in blood at 10 mg/kg,po (reference value: 19 +/- 1.77 pg); type: organism-based; details: in vivo
[9] = Toxicity in Wistar rat assessed as mean corpuscular hemoglobin concentration in blood at 10 mg/kg,po (reference value: 33.8 +/- 2.1 g/dl); type: organism-based; details: in vivo
[10] = Toxicity in Wistar rat assessed as red blood cell distribution width in blood at 10 mg/kg,po (reference value: 17.2 +/- 0.22 %); type: organism-based; details: in vivo
[11] = Toxicity in Wistar rat assessed as mean platelet volume in blood at 10 mg/kg,po (reference value: 7.3 +/- 0.12 fL); type: organism-based; details: in vivo
[12] = Toxicity in Wistar rat assessed as ALT level in liver at 10 mg/kg,po (reference value: 27 +/- 2 U/L); type: organism-based; details: in vivo
[13] = Toxicity in Wistar rat assessed as AST level in liver at 10 mg/kg,po (reference value: 67 +/- 5.1 U/L); type: organism-based; details: in vivo
[14] = Toxicity in Wistar rat assessed as bilirubin level in liver at 10 mg/kg,po (reference value: 0.6 +/- 0.08 mg/dl); type: organism-based; details: in vivo
[15] = Toxicity in Wistar rat assessed as ALP level in liver at 10 mg/kg,po (reference value: 140 +/- 6 U/L); type: organism-based; details: in vivo
[16] = Toxicity in Wistar rat assessed as glucose level in liver at 10 mg/kg,po (reference value: 105 +/- 8.44 mg/dl); type: organism-based; details: in vivo
[17] = Toxicity in Wistar rat assessed as urea level in liver at 10 mg/kg,po (reference value: 33.6 +/- 2.65 mg/dl); type: organism-based; details: in vivo
[18] = Toxicity in Wistar rat assessed as creatinine level in liver at 10 mg/kg,po (reference value: 0.68 +/- 0.03 mg/dl); type: organism-based; details: in vivo
[19] = Toxicity in Wistar rat assessed as albumin level in liver at 10 mg/kg,po (reference value: 3.28 +/- 0.43 mg/dl); type: organism-based; details: in vivo
Rattus norvegicus [20] = assay: Antialzheimer activity against AlCl3-induced Alzheimer's disease Wistar albino rat model assessed as time taken to reach the food at 10 mg/kg,po for 6 weeks by T-maze test; type: functional
Rattus norvegicus [21] = assay: Antialzheimer activity against AlCl3-induced Alzheimer's disease Wistar albino rat model assessed as improvement in cognitive ability at 10 mg/kg,po for 6 weeks by T-maze test; type: functional
Rattus norvegicus [22] = assay: Antialzheimer activity against AlCl3-induced Alzheimer's disease Wistar albino rat model assessed as GSH level in brain at 10 mg/kg,po for 6 weeks; type: functional
Rattus norvegicus [23] = assay: Antialzheimer activity against AlCl3-induced Alzheimer's disease Wistar albino rat model assessed as change in GSH level in brain at 10 mg/kg,po for 6 weeks relative to control; type: functional
Rattus norvegicus [24] = assay: Antialzheimer activity against AlCl3-induced Alzheimer's disease Wistar albino rat model assessed as improvement in GSH level in brain at 10 mg/kg,po for 6 weeks relative to control; type: functional
Rattus norvegicus [25] = assay: Antialzheimer activity against AlCl3-induced Alzheimer's disease Wistar albino rat model assessed as MDA level in brain at 10 mg/kg,po for 6 weeks; type: functional
Rattus norvegicus [26] = assay: Antialzheimer activity against AlCl3-induced Alzheimer's disease Wistar albino rat model assessed as change in MDA level in brain at 10 mg/kg,po for 6 weeks relative to control; type: functional
Rattus norvegicus [27] = assay: Antialzheimer activity against AlCl3-induced Alzheimer's disease Wistar albino rat model assessed as improvement in MDA level in brain at 10 mg/kg,po for 6 weeks relative to control; type: functional
Rattus norvegicus [28] = assay: Antialzheimer activity against AlCl3-induced Alzheimer's disease Wistar albino rat model assessed as degeneration of pyramidal neurons in hippocampus at 10 mg/kg,po for 6 weeks by hematoxylin and eosin staining based microscopic analysis; type: functional
Rattus norvegicus [29] = assay: Antialzheimer activity against AlCl3-induced Alzheimer's disease Wistar albino rat model assessed as gliosis at 10 mg/kg,po for 6 weeks by hematoxylin and eosin staining based microscopic analysis; type: functional
[30] = Toxicity in Wistar rat assessed as Kupffer cell proliferation in liver at 10 mg/kg,po by hematoxylin and eosin staining based microscopic analysis; type: organism-based; details: in vivo
[31] = Toxicity in Wistar rat assessed as histopathological change in kidney at 10 mg/kg,po by hematoxylin and eosin staining based microscopic analysis; type: organism-based; details: in vivo
[32] = Toxicity in Wistar rat assessed as histopathological change in heart at 10 mg/kg,po by hematoxylin and eosin staining based microscopic analysis; type: organism-based; details: in vivo
[33] = Toxicity in Wistar rat assessed as histopathological change in brain at 10 mg/kg,po by hematoxylin and eosin staining based microscopic analysis; type: organism-based; details: in vivo
Rattus norvegicus [34] = assay: Antialzheimer activity against AlCl3-induced Alzheimer's disease Wistar albino rat model assessed as decrease in cellular density in hippocampal region of brain at 10 mg/kg,po for 6 weeks by hematoxylin and eosin staining based microscopic analysis; type: functional, organism-based
[35] = Acute toxicity in Wistar rat assessed as mortality at 50 mg/kg,po observed after 24 hrs; type: organism-based; details: in vivo
[36] = Acute toxicity in Wistar rat assessed as mortality at 100 mg/kg,po observed after 24 hrs; type: organism-based; details: in vivo
[37] = Acute toxicity in Wistar rat assessed as mortality at 50 mg/kg,po observed after 1 month; type: organism-based; details: in vivo, 730 h, time 1 months
[38] = Acute toxicity in Wistar rat assessed as mortality at 100 mg/kg,po observed after 1 month; type: organism-based; details: in vivo, 730 h, time 1 months
[39] = Acute toxicity in Wistar rat assessed as mortality at 10 mg/kg,po administrated for 1 month; type: organism-based; details: in vivo, 730 h, time 1 months
[40] = Acute toxicity in Wistar rat assessed as loose bowels at 10 mg/kg,po administrated for 1 month; type: organism-based; details: in vivo, 730 h, time 1 months

O=C(/C=C/Nc1ccc(S(=O)(=O)Nc2ncccn2)cc1)c1cc2ccccc2o1
pIC50 (Acetylcholinesterase): 6.45
Activity [1]: 5%
Activity [2]: 37.5%

CN(C)/C=C/C(=O)c1cc2ccccc2o1
pIC50 (Acetylcholinesterase): 5.57
Activity [1]: 11.4%
Activity [2]: 56.4%

CC(=O)c1cccc(N/C=C/C(=O)c2cc3ccccc3o2)c1
pIC50 (Acetylcholinesterase): 6.72
Activity [1]: 63.1%
Activity [2]: 67.6%
Activity [3]: 14.8 g/dL
Activity [4]: 6.29 10^6/µL
Activity [5]: 42.16%
Activity [6]: 39.4%
Activity [7]: 56 fL
Activity [8]: 18.6 pg
Activity [9]: 31 g/dL
Activity [10]: 16.6%
Activity [11]: 6.9 fL
Activity [12]: 29 U/L
Activity [13]: 68 U/L
Activity [14]: 0.67 mg/dL
Activity [15]: 136 U/L
Activity [16]: 115 mg/dL
Activity [17]: 32 mg/dL
Activity [18]: 0.72 mg/dL
Activity [19]: 3.3 mg/dL
Time (Rattus norvegicus [20]): 27 s
Activity (Rattus norvegicus [21]): 107.04%
Activity (Rattus norvegicus [22]): 16.32 mg
Activity (Rattus norvegicus [23]): 24.09%
Activity (Rattus norvegicus [24]): 26.98%
Activity (Rattus norvegicus [25]): 57.14 nmol
Activity (Rattus norvegicus [26]): 103.35%
Activity (Rattus norvegicus [27]): 242.95%
Activity (Rattus norvegicus [28]): <10%
Activity (Rattus norvegicus [29]): <10%
Activity [30]: Non-Toxic
Activity [31]: Non-Toxic
Activity [32]: Non-Toxic
Activity [33]: Non-Toxic
Activity (Rattus norvegicus [34]): Active
Activity [35]: Non-Toxic
mortality at 24 h [36]: 25%
Activity [37]: Non-Toxic
Activity [38]: Non-Toxic
Activity [39]: Non-Toxic
Activity [40]: Non-Toxic

O=C(O)c1cccc(N/C=C/C(=O)c2cc3ccccc3o2)c1
pIC50 (Acetylcholinesterase): 5.42
Activity [1]: 22.5%
Activity [2]: 65%

O=C(/C=C/Nc1ccc(F)cc1)c1cc2ccccc2o1
pIC50 (Acetylcholinesterase): 6.31
Activity [1]: 73.9%
Activity [2]: 76.1%

O=C(/C=C/Nc1ccccc1C(=O)O)c1cc2ccccc2o1
pIC50 (Acetylcholinesterase): 5.68
Activity [1]: 23.5%
Activity [2]: 65%

O=C(/C=C/Nc1ccc(Cl)cc1)c1cc2ccccc2o1
pIC50 (Acetylcholinesterase): 5.67
Activity [1]: 28.2%
Activity [2]: 65.3%

O=C(/C=C/Nc1ccc(S(=O)(=O)Nc2ccccn2)cc1)c1cc2ccccc2o1
pIC50 (Acetylcholinesterase): 5.97
Activity [1]: 2.2%
Activity [2]: 76.1%

O=C(/C=C/Nc1cccc(Br)c1)c1cc2ccccc2o1
pIC50 (Acetylcholinesterase): 6.50
Activity [1]: 9.29%
Activity [2]: 17.9%

O=C(/C=C/Nc1cccc([N+](=O)[O-])c1)c1cc2ccccc2o1
pIC50 (Acetylcholinesterase): 6.13
Activity [1]: 76.1%
Activity [2]: 82.6%

COc1cc2c(cc1OC)C(=O)C(CC1CCN(Cc3ccccc3)CC1)C2 (configuration not stated) [DONEPEZIL]
Activity [1]: 20.4%
Activity [2]: 30.2%
Time (Rattus norvegicus [20]): 26 s
Activity (Rattus norvegicus [21]): 112.14%
Activity (Rattus norvegicus [22]): 17.62 mg
Activity (Rattus norvegicus [23]): 18.05%
Activity (Rattus norvegicus [24]): 33.02%
Activity (Rattus norvegicus [25]): 47.17 nmol
Activity (Rattus norvegicus [26]): 67.86%
Activity (Rattus norvegicus [27]): 278.43%
Activity (Rattus norvegicus [28]): <10%
Activity (Rattus norvegicus [29]): <10%

Cc1cccc(N/C=C/C(=O)c2cc3ccccc3o2)c1
pIC50 (Acetylcholinesterase): 6.21
Activity [1]: 12.1%
Activity [2]: 14.3%

O=C(/C=C/Nc1ccccc1O)c1cc2ccccc2o1
pIC50 (Acetylcholinesterase): 6.51
Activity [1]: 65.5%
Activity [2]: 90%

CC(=O)c1ccc(N/C=C/C(=O)c2cc3ccccc3o2)cc1
pIC50 (Acetylcholinesterase): 5.23
Activity [1]: 10%
Activity [2]: 27%

O=C1O[C@H]([C@@H](O)CO)C(O)=C1O
Activity [1]: 81%
Activity [2]: 89%

Cc1cc(NS(=O)(=O)c2ccc(N/C=C/C(=O)c3cc4ccccc4o3)cc2)no1
pIC50 (Acetylcholinesterase): 6.55
Activity [1]: 71.7%
Activity [2]: 65.2%

Cc1ccc(N/C=C/C(=O)c2cc3ccccc3o2)cc1
pIC50 (Acetylcholinesterase): 6.40
Activity [1]: 21.3%
Activity [2]: 40%

CCOC(=O)c1ccc(N/C=C/C(=O)c2cc3ccccc3o2)cc1
pIC50 (Acetylcholinesterase): 5.67
Activity [1]: 21.4%
Activity [2]: 28.6%

O=C(O)c1ccc(N/C=C/C(=O)c2cc3ccccc3o2)cc1
pIC50 (Acetylcholinesterase): 6.10
Activity [1]: 5.71%
Activity [2]: 35%

N=C(N)NS(=O)(=O)c1ccc(N/C=C/C(=O)c2cc3ccccc3o2)cc1
pIC50 (Acetylcholinesterase): 6.04
Activity [1]: 25%
Activity [2]: 35%

NS(=O)(=O)c1ccc(N/C=C/C(=O)c2cc3ccccc3o2)cc1
pIC50 (Acetylcholinesterase): 6.05
Activity [1]: 18.4%
Activity [2]: 13%

O=C(/C=C/Nc1ccc(Br)cc1)c1cc2ccccc2o1
pIC50 (Acetylcholinesterase): 5.96
Activity [1]: 22.2%
Activity [2]: 27%
